Assay results taken from the CheMixHub ionic liquid set.
± gives the uncertainty stated by the source.

Assay: xn = mol fraction of the nth substance listed

CC(=O)[O-].[Na+] + CC(=O)[O-].CC[n+]1ccn(C)c1
303.15 K, 101 kPa, x1 = 0.1001
Settings	electrical conductivity [S/m]	viscosity [mPa·s]
–	0.252 ± 0.005	147.4 ± 9.7

CCC(=O)[O-].OCC[NH2+]c1ccccc1 + O
303.15 K, 100 kPa
Settings	electrical conductivity [S/m]
x2 = 0.01476	0.000353 ± 1.4e-05
x2 = 0.03394	0.000354 ± 1.4e-05
x2 = 0.0417	0.000355 ± 1.4e-05
x2 = 0.05414	0.000356 ± 1.4e-05

N#C[C-](C#N)C#N.OCC[n+]1ccccc1 + c1ccsc1
101 kPa
Settings	viscosity [mPa·s]
293.15 K, x1 = 0.7041	52.2 ± 5.3
293.15 K, x1 = 1	137 ± 14
298.15 K, x1 = 0.901	67.1 ± 6.8
303.15 K, x1 = 0.4996	19.1 ± 1.9
303.15 K, x1 = 0.901	50.9 ± 5.1
318.15 K, x1 = 0.8044	21.1 ± 2.1
323.15 K, x1 = 0.6	12.2 ± 1.2
328.15 K, x1 = 0.7041	12.6 ± 1.3
328.15 K, x1 = 0.901	17.9 ± 1.8
333.15 K, x1 = 0.4996	7.57 ± 0.76
333.15 K, x1 = 0.6	9.12 ± 0.92
338.15 K, x1 = 0.4042	5.4 ± 0.54
338.15 K, x1 = 0.4996	6.54 ± 0.66
338.15 K, x1 = 0.7041	9.43 ± 0.95
343.15 K, x1 = 0.4996	5.74 ± 0.58
343.15 K, x1 = 0.8044	9.9 ± 1
